Laboratory results: the NIST ThermoML archive (doi:10.1021/je1003466)
Several values for one entry are separate records, joined by “and”; a condition that tells them apart may be missing. Equal values may be shown once. Numbers after ± are expanded uncertainties.

Test: mn = molality of the nth substance listed, in mol/kg
Conditions: 298.15 K, 101 kPa, Liquid

CNC=O [N-methylformamide] + O
Conditions	mass density
m1 = 0.1996	997.54 ± 0.31 kg/m3
m1 = 0.2	997.53 ± 0.31 kg/m3 and 997.55 ± 0.31 kg/m3
m1 = 0.3493	997.91 ± 0.31 kg/m3
m1 = 0.5018	998.28 ± 0.32 kg/m3
m1 = 0.5044	998.28 ± 0.32 kg/m3
m1 = 0.5343	998.34 ± 0.32 kg/m3
m1 = 0.9779	999.42 ± 0.34 kg/m3
m1 = 0.9919	999.46 ± 0.34 kg/m3
m1 = 1.011	999.49 ± 0.34 kg/m3
m1 = 1.499	1000.63 ± 0.37 kg/m3
m1 = 1.5	1000.62 ± 0.37 kg/m3
m1 = 1.505	1000.65 ± 0.37 kg/m3
m1 = 2.006	1001.79 ± 0.4 kg/m3
m1 = 2.011	1001.79 ± 0.4 kg/m3
m1 = 2.012	1001.79 ± 0.4 kg/m3
m1 = 2.47	1002.77 ± 0.44 kg/m3
m1 = 2.497	1002.77 ± 0.44 kg/m3
m1 = 2.513	1002.86 ± 0.44 kg/m3
m1 = 3.022	1003.9 ± 0.48 kg/m3
m1 = 3.05	1003.95 ± 0.48 kg/m3
m1 = 3.068	1004 ± 0.48 kg/m3
m1 = 3.496	1004.81 ± 0.52 kg/m3
m1 = 3.499	1004.82 ± 0.52 kg/m3 and 1004.81 ± 0.52 kg/m3
m1 = 3.989	1005.73 ± 0.57 kg/m3
m1 = 3.992	1005.74 ± 0.57 kg/m3
m1 = 3.997	1005.73 ± 0.57 kg/m3
